The source of these data is PMC7692735, “Bromo-Cyclobutenaminones as New Covalent UDP-N-Acetylglucosamine Enolpyruvyl Transferase (MurA) Inhibitors” (Pharmaceuticals, 2020).

In data set [1] the target is T1, MurA (E. coli) (Escherichia coli, UniProt P0A749).
T1 construct: made in house; host or cells: E. coli
The data set is described as follows: MurA assay, colorimetric malachite green method. The format is biochemical. The note with it: for IC50: read-out: IC50 (converted); for MurA inhibition in screening: 500 μM screening concentration. How it is done: MurAEC protein was recombinant, expressed in E. coli. The inhibition of MurA was monitored with the colorimetric malachite green method in which orthophosphate generated during the reaction is measured. MurA enzyme (E. coli) was pre-incubated with the substrate UNAG and compound for 30 min at 37 °C. The reaction was started by the addition of the second substrate PEP, resulting in a mixture with a final volume of 50 μL. The mixtures contained: 50 mM Hepes, pH 7.8, 0.005% Triton X-114, 200 μM UNAG, 100 μM PEP, purified MurA (diluted in 50 mM Hepes, pH 7.8) and 500 μM of each tested compound dissolved in DMSO. All compounds were soluble in the assay mixtures containing 5% DMSO (v/v). After incubation for 15 min at 37 °C, the enzyme reaction was terminated by adding Biomol® reagent (100μL) and the absorbance was measured at 650 nm after 5 min. All of the experiments were run in duplicate. Remaining activities (RAs) were calculated with respect to similar assays without the tested compounds and with 5% DMSO. The IC50 values, the concentration of the compound at which the remaining activity was 50%, were determined by measuring the remaining activities at seven different compound concentrations. The data are expressed as means of duplicate determinations, and the standard deviations were within 10% of the given values. A time-dependent inhibition assay was also performed. The IC50 values were determined at 0, 15 and 30 min of pre-incubation.

The target of data set [2] is T1, MurA (E. coli). Conditions: known MurA inhibitors, Figure 1; cited from earlier work.
In a further data set the test system is MurA Cys115. Description: MS/MS of tryptic digested MurA, covalent labelling. In kind it is binding, E. coli. Conditions: tryptic peptide amino acids 104–120. The protocol: The tryptic digestion method was adapted from our former publication.
Briefly, 50 μL of MurA (42 μM) and 10 μL 0.2% (w/v) RapiGest SF (Waters Corp., Milford, MA, USA) solution buffered with 50 mM ammonium bicarbonate (NH4HCO3) were mixed (pH = 7.8). 4.5 μL of 45 mM DTT (~200 nmol) in 100 mM NH4HCO3 was added and the mixture kept at 37.5 °C for 30 min. After cooling the sample to room temperature, 7.5 μL of 100 mM iodoacetamide (750 nmol) in 100 mM NH4HCO3 was added and the mixture placed in the dark at room temperature for 30 min. The reduced and alkylated protein was then digested by 10 μL (1 mg mL^−1) trypsin (the enzyme-to-protein ratio was 1:10) (Sigma, St Louis, MO, USA). The sample was incubated at 37 °C overnight. To degrade the surfactant, 7 μL of HCOOH (500 mM) solution was added to the digested […] sample to obtain the final 40 mM (pH ≈ 2) solution which was incubated at 37 °C for 45 min. For LC-MS analysis, the acid-treated sample was centrifuged for 5 min at 13,000 rpm.
A QTRAP 6500 triple quadruple—linear ion trap mass spectrometer, equipped with a Turbo V source in electrospray mode (AB Sciex Pte. Ltd., Framingham, MA, USA) and an Agilent 1100 Binary Pump HPLC system (Agilent Technologies, Waldbronn, Germany) equipped with an autosampler was used for LC-MS/MS analysis. […]

Another data set deals with E. coli (ATCC 25922). Description: Antimicrobial testing (MIC), broth microdilution. The note with it: Escherichia coli, ATCC25922, positive control. The format is cell-based. How it is done:
(§1) Antimicrobial testing was carried out by the broth microdilution method in 96-well plate format following the CLSI guidelines and European Committee for Antimicrobial Susceptibility Testing recommendations. Bacterial suspension of specific bacterial strain, equivalent to 0.5 McFarland turbidity standard, was diluted with cation-adjusted Mueller Hinton broth to obtain a final inoculum of 10^5 CFU/mL. Compounds dissolved in DMSO and inoculum were mixed together and incubated for 20–24 h at 37 °C. After incubation the minimal inhibitory concentration (MIC) values were determined by visual inspection as the lowest dilution of compounds showing no turbidity. The MICs were determined against S. aureus (ATCC 29213) and E. coli (ATCC 25922) bacterial strains. Tetracycline was used as a positive control on every assay plate, showing a MIC of 0.5 µg/mL and 1 µg/mL for S. aureus and E. coli, respectively.
(Broth dilution looks for growth in wells or tubes with falling amounts of substance.)

The test system of a further data set is S. aureus (ATCC 29213). The data set is described as follows: Antimicrobial testing (MIC), broth microdilution. In kind it is cell-based. The note with it: Staphylococcus aureus, ATCC29213, positive control. The protocol:
as §1

The subject of another data set is MurA (E. cloacae). Also noted: method as in PMID 24755374, PMID 25521652, PMID 11600375, PMID 30461051. The note with it: known MurA inhibitors, Figure 1; cited from earlier work.
The mark [3] stands for this setting: fragment 500 μM, 30 min preincubation at 37 °C.
[4] abbreviates: fragment 500 μM, 30 min preincubation at 37 °C, read-out: RA (remaining activity) at 500 µM.

≈ marks a conversion by molar mass, not a printed value. Where two headings read alike, the source gives them in different places.

T1 sequence (P0A749 whole entry): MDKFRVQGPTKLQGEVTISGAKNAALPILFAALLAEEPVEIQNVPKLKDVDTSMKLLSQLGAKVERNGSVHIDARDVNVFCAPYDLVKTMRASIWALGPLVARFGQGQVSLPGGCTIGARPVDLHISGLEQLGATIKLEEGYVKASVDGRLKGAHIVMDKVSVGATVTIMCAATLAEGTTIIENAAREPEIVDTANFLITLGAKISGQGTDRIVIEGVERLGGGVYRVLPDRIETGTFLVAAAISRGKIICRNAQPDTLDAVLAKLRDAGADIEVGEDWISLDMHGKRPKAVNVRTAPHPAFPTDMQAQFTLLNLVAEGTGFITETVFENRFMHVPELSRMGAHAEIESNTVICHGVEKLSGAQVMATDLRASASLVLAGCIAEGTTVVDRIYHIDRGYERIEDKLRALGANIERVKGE

Regarding “2-Bromo-4,4-dimethyl-3-(methylamino)cyclobut-2-en-1-one [15b]”, the “RA (remaining activity) at 500 µM” value at MurA (E. coli) [1] (setting [3]) worked out at 91 ± 5%.

Consider `C=C1C(=O)OCC1O` (racemic) [(±)-tulipaline B], for which the concentration for half-maximal inhibition (IC50) at MurA (E. coli) [2] is 2.2 µM.

For the compound `CNC1=CC(=O)C1(C)C` [14a, 3-(Methylamino)-4,4-dimethylcyclobut-2-en-1-one], on MurA (E. coli) [1] (setting [4]), the remaining activity at 500 µM came to 93 ± 4%.

Consider `CN(C)C1=CC(=O)C1(C)C` [14b, 3-(Dimethylamino)-4,4-dimethylcyclobut-2-en-1-one], for which, at MurA (E. coli) [1] (setting [4]), the remaining activity at 500 µM amounted to 99 ± 1%.

As for `CCN(CC)C1=CC(=O)C1(C)C` [14c, 3-(Diethylamino)-4,4-dimethylcyclobut-2-en-1-one], the remaining activity at 500 µM on MurA (E. coli) [1] (setting [4]) turned out to be 96 ± 2%.

Take `COc1ccc(CN(C)C2=CC(=O)C2(C)C)cc1` [14d, 3-((4-Methoxybenzyl)(methyl)amino)-4,4-dimethylcyclobut-2-en-1-one]: at MurA (E. coli) [1] (setting [4]), the remaining activity at 500 µM is 99 ± 3%.

Turning to `CN(CC(F)(F)F)C1=CC(=O)C1(C)C` [14e, 4,4-Dimethyl-3-(methyl(2,2,2-trifluoroethyl)amino)cyclobut-2-en-1-one], the remaining activity at 500 µM on MurA (E. coli) [1] (setting [4]) came to 98 ± 7%.

Regarding `CNC1=C(Br)C(=O)C1(C)C` [15a, 2-Bromo-4,4-dimethyl-3-(methylamino)cyclobut-2-en-1-one], the remaining activity at 500 µM on MurA (E. coli) [1] (setting [4]) is 100 ± 7%.

Take `CCN(CC)C1=C(Br)C(=O)C1(C)C` [15c, 2-Bromo-3-(diethylamino)-4,4-dimethylcyclobut-2-en-1-one]: the remaining activity at 500 µM on MurA (E. coli) [1] (setting [4]) worked out at 88 ± 6%.

As for `COc1ccc(CN(C)C2=C(Br)C(=O)C2(C)C)cc1` [15d, 2-Bromo-3-((4-methoxybenzyl)(methyl)amino)-4,4-dimethylcyclobut-2-en-1-one], at MurA (E. coli) [1] (30 min preincubation), the IC50 is 363 µM. In addition, on MurA (E. coli) [1] (setting [3]), the “RA (remaining activity) at 500 µM” value was 13 ± 1%. The remaining activity at 500 µM at MurA (E. coli) [1] (read-out: RA (remaining activity) at 500 µM, fragment 500 μM, 30 min preincubation at 37 °C) was under 15%.

In the case of `CN(CC(F)(F)F)C1=C(Br)C(=O)C1(C)C` [15e, 2-Bromo-4,4-dimethyl-3-(methyl(2,2,2-trifluoroethyl)amino)cyclobut-2-en-1-one], the “MurA inhibition in screening” value on MurA (E. coli) [1] is recorded as “no effect”. Also, the remaining activity at 500 µM at MurA (E. coli) [1] (setting [4]) was 84 ± 4%.

In the case of `CN(C(=O)c1ccccc1)C1=CC(=O)C1(C)C` [16a, N-(4,4-dimethyl-3-oxocyclobut-1-en-1-yl)-N-methylbenzamide], the remaining activity at 500 µM at MurA (E. coli) [1] (setting [4]) stood at 99 ± 8%.

For the compound `CC(=O)N(C)C1=C(Br)C(=O)C1(C)C` [17b, N-(2-bromo-4,4-dimethyl-3-oxocyclobut-1-en-1-yl)-N-methylacetamide], the IC50 at MurA (E. coli) [1] (0 min preincubation) was 356 ± 29 µM; on MurA (E. coli) [1] (15 min preincubation), 149 ± 15 µM; at MurA (E. coli) [1] (30 min preincubation), 128 µM. Further, on MurA (E. coli) [1] (setting [4]), the remaining activity at 500 µM worked out at 8 ± 2%. For the same compound, the “Covalent labelling site on MurA by MS/MS” value with MurA Cys115 is on record as “labeling on Cys115”.

Regarding `CN(C)[C@@H]1C(O)=C(C(N)=O)C(=O)[C@@]2(O)C(O)=C3C(=O)c4c(O)cccc4[C@@](C)(O)[C@H]3C[C@@H]12` [Tetracycline], the MIC was found to be 1 µg/mL (≈ 2.25 µM) in the data set on E. coli (ATCC 25922) and 0.5 µg/mL (≈ 1.13 µM) against S. aureus (ATCC 29213).

Regarding `O=C1O/C(=C\c2cccc3ccccc23)C(O)=C1c1ccc(C(F)(F)F)cc1` [compound 5], the IC50 at MurA (E. coli) [2] was 39 µM.

Consider `C=C(C(=O)O)[C@@H]1[C@@H](CCCCCCCC)OC(=O)[C@@H]1O` [compound 8], for which the IC50 at MurA (E. coli) [2] is 2.8 µM.

With `C=Cc1cncs1` [compound 9], the 50% inhibitory concentration (IC50) on MurA (E. coli) [2] is 66 µM.

Take `Ic1cncnc1` [compound 10]: at MurA (E. coli) [2], the 50% inhibitory concentration (IC50) was 3.8 µM.

`CCOC1=CC(=O)C1(C)C` [compound 12, 3-Ethoxy-4,4-dimethylcyclobut-2-en-1-one]: the “MurA inhibition in screening” value at MurA (E. coli) [1] is “to no avail”. On MurA (E. coli) [1] (setting [4]), the remaining activity at 500 µM came out at 98 ± 2%.

With `CC1=C(O)C(=O)[C@@H]2O[C@@H]2C1=O` [terreic acid], the 50% inhibitory concentration (IC50) in the data set on MurA (E. cloacae) is 14 µM.

By IC50 is commonly meant the concentration needed to halve the response being measured. As usually defined, the remaining activity is the signal under treatment as a percentage of the control signal. Usually MIC stands for the least concentration at which growth counts as inhibited. A lower MIC goes with a more susceptible organism.
